Assay results taken from US20030229053A1, “Compounds and methods for the treatment or prevention of flavivirus infections” (Shire BioChem Inc., priority 2001, published 2003).

Biological target: HCV NS5B RNA-dependent RNA polymerase (Hepatitis C virus genotype 1b, UniProt P26663)
Experiment: In vitro RNA-dependent RNA polymerase assay (Assay 1), polyA/oligo dT, TCA precipitation
Type: biochemical
Settings: polyA/oligo dT template/primer, 200 ng NS5B, 2 h at 22° C.; read-out: RNA pol Assay 1 IC50 (μm)
Outline: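 Purified NS5B (200 ng) on annealed polyA/oligo dT15 in 20 mM Tris-HCl pH 7.5, 50 mM NaCl, 5 mM MgCl2, 1 mM DTT, 15 µM cold UTP plus [32P]-UTP, 2 h at 22°C. Product TCA-precipitated, filtered onto glass-fibre and counted by liquid scintillation.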

HCV NS5B RNA-dependent RNA polymerase, sequence (P26663 2420-3010 limits assumed): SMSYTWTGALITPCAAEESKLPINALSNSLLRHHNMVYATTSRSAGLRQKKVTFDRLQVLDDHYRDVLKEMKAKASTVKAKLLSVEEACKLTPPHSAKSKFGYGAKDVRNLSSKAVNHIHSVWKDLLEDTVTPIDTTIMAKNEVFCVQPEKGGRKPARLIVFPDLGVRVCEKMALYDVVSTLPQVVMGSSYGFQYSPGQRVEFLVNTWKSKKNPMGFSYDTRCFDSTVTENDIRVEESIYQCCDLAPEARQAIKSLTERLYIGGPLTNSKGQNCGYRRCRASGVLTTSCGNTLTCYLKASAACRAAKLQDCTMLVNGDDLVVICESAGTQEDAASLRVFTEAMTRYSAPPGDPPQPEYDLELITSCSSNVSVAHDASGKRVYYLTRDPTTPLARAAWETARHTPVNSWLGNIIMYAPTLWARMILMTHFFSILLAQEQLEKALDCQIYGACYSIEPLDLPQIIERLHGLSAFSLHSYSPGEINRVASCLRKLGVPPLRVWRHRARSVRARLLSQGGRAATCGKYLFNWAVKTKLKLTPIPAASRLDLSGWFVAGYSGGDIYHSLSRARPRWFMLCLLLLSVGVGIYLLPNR

| Compound | IC50 |
| --- | --- |
| O=C(O)[C@H](Cc1ccccc1)N(Cc1cc(-c2ccc(Cl)cc2Cl)cs1)C(=O)c1ccc(Cl)cc1Cl [compound #90, (2s) -2-{(2,4-Dichloro-benzoyl)-[4-(2,4-dichloro-phenyl)-thiophen-2-ylmethyl]-amino}-3-phenyl-propionic acid] | < 5 µM |
| O=C(O)[C@H](Cc1ccccc1)N(Cc1ccc(-c2ccc(F)c(Cl)c2)s1)C(=O)c1ccc(Cl)cc1Cl [compound #91, (2s)-2-[[5-(3-Chloro-4-fluoro-phenyl)-thiophen-2-ylmethyl]-(2,4-dichloro-benzoyl)-amino]-3-phenyl-propionic acid] | < 5 µM |
| O=C(O)[C@H](Cc1ccccc1)N(Cc1ccc(-c2ccc(Cl)c(F)c2)s1)C(=O)c1ccc(Cl)cc1Cl [compound #92, (2s)-2-[[5-(4-chloro-3-fluoro-phenyl)-thiophen-2-ylmethyl]-(2,4-dichloro-benzoyl)-amino]-3-phenyl-propionic acid] | < 5 µM |
| O=C(O)[C@H](Cc1ccccc1)N(Cc1ccc(-c2ccc(Cl)cc2Cl)s1)C(=O)c1ccc(Cl)cc1Cl [compound #93, (2s)-2-{(2,4-Dichloro-benzoyl)-[5-(2,4-dichloro-phenyl)-thiophen-2-ylmethyl]-amino}-3-phenyl-propionic acid] | < 5 µM |
| O=C(O)[C@H](Cc1ccccc1)N(Cc1ccc(-c2nccs2)s1)C(=O)c1ccc(Cl)cc1Cl [compound #94, (2s)-2-[(2,4-Dichloro-benzoyl)-(5-thiazol-2-yl-thiophen-2-ylmethyl)-amino]-3-phenyl-propionic acid] | < 5 µM |
| O=C(O)[C@H](Cc1ccccc1)N(Cc1ccc(-c2cc(F)cc(F)c2)s1)C(=O)c1ccc(Cl)cc1Cl [compound #95, (2s)-2-{(2,4-Dichloro-benzoyl)-[5-(3,5-difluoro-phenyl)-thiophen-2-ylmethyl]-amino}-3-phenyl-propionic acid] | < 5 µM |
| COc1cccc(-c2ccc(CN(C(=O)c3ccc(Cl)cc3Cl)[C@@H](Cc3ccccc3)C(=O)O)s2)c1 [compound #96, (2s)-2-{(2,4-Dichloro-benzoyl)-[5-(3-methoxy-phenyl)-thiophen-2-ylmethyl]-amino}-3-phenyl-propionic acid] | < 5 µM |
| O=C(O)[C@H](Cc1ccccc1)N(Cc1ccc(-c2cccc(F)c2)s1)C(=O)c1ccc(Cl)cc1Cl [compound #97, (2s)-2-{(2,4-Dichloro-benzoyl)-[5-(3-fluoro-phenyl)-thiophen-2-ylmethyl]-amino}-3-phenyl-propionic acid] | < 5 µM |
| O=C(O)[C@H](Cc1ccccc1)N(Cc1cccs1)C(=O)c1ccc(Cl)cc1Cl [compound #98, (2s)-2-[(2,4-Dichloro-benzoyl)-thiophen-2-ylmethyl-amino]-3-phenyl-propionic acid] | < 5 µM |
| O=C(O)[C@H](Cc1ccccc1)N(Cc1cc(Br)cs1)C(=O)c1ccc(Cl)cc1Cl [compound #99, (2s)-2-[(4-Bromo-thiophen-2-ylmethyl)-(2,4-dichloro-benzoyl)-amino]-3-phenyl-propionic acid] | < 5 µM |
| O=C(O)[C@H](Cc1ccccc1)N(Cc1cnc(N2CCN(c3ccccc3)CC2)s1)C(=O)c1ccc(Cl)cc1Cl [compound #100, (2s)-2-{(2,4-Dichloro-benzoyl)-[2-(4-phenyl-piperazin-1-yl)-thiazol-5-ylmethyl]-amino}-3-phenyl-propionic acid] | 5 to 20 µM |
| O=C(O)[C@H](Cc1ccccc1)N(Cc1cnc(N2CCN(Cc3ccccc3)CC2)s1)C(=O)c1ccc(Cl)cc1Cl [compound #102, (2s)-2-[[2-(4-Benzyl-piperazin-1-yl)-thiazol-5-ylmethyl]-(2,4-dichloro-benzoyl)-amino]-3-phenyl-propionic acid] | < 5 µM |
| O=C(O)[C@H](Cc1ccccc1)N(Cc1cnc(N2CCCCC2)s1)C(=O)c1ccc(Cl)cc1Cl [compound #103, (2s)-2-[(2,4-Dichloro-benzoyl)-(2-piperidin-1-yl-thiazol-5-ylmethyl)-amino]-3-phenyl-propionic acid] | < 5 µM |
| CCN(CC)c1ncc(CN(C(=O)c2ccc(Cl)cc2Cl)[C@@H](Cc2ccccc2)C(=O)O)s1 [compound #104, (2s)-2-[(2,4-Dichloro-benzoyl)-(2-diethylamino-thiazol-5-ylmethyl)-amino]-3-phenyl-propionic acid] | < 5 µM |
| COc1cc(C)c(S(=O)(=O)N(Cc2c(C(=O)c3ccc(Cl)cc3)oc3ccccc23)[C@@H](Cc2ccccc2)C(=O)O)c(C)c1C [compound #105, (2s)-2-[[2-(4-Chloro-benzoyl)-benzofuran-3-ylmethyl]-(4-methoxy-2,3,6-trimethyl-benzenesulfonyl)-amino]-3-phenyl-propionic acid] | 5 to 20 µM |
| COc1cc(C)c(S(=O)(=O)N(Cc2c(C(F)(F)F)nn(C)c2Oc2ccc(Cl)cc2Cl)[C@@H](Cc2ccccc2)C(=O)O)c(C)c1C [compound #106, (2s)-2-[[5-(2,4-Dichloro-phenoxy)-1-methyl-3-trifluoromethyl-1h-pyrazol-4-ylmethyl]-(4-methoxy-2,3,6-trimethyl-benzenesulfonyl)-amino]-3-phenyl-propionic acid] | 5 to 20 µM |
| O=C(CN(C(=O)c1ccc(Cl)cc1Cl)[C@@H](Cc1ccccc1)C(=O)O)c1ccc(-c2ccc(Cl)cc2Cl)o1 [compound #107, (2s)-2-((2,4-Dichloro-benzoyl)-{2-[5-(2,4-dichloro-phenyl)-furan-2-yl]-2-oxo-ethyl}-amino)-3-phenyl-propionic acid] | < 5 µM |

| Compound | IC50 |
| --- | --- |
| C=CCN(C(=O)c1ccc(Cl)cc1Cl)[C@@H](Cc1ccccc1)C(=O)O [compound #109, (2s)-2-[Allyl-(2,4-dichloro-benzoyl)-amino]-3-phenyl-propionic acid] | 5 to 20 µM |
| CN(C(=O)c1ccc(Cl)cc1Cl)[C@@H](Cc1ccccc1)C(=O)O [compound #110, (2s)-2-[(2,4-Dichloro-benzoyl)-methyl-amino]-3-phenyl-propionic acid] | 5 to 20 µM |
| C#CCN(C(=O)c1ccc(Cl)cc1Cl)[C@@H](Cc1ccccc1)C(=O)O [compound #111, (2s)-2-[(2,4-Dichloro-benzoyl)-prop-2-ynyl-amino]-3-phenyl-propionic acid] | 5 to 20 µM |
| CCCN(C(=O)c1ccc(Cl)cc1Cl)[C@@H](Cc1ccccc1)C(=O)O [compound #112, (2s)-2-[(2,4-Dichloro-benzoyl)-propyl-amino]-3-phenyl-propionic acid] | > 20 µM |
| O=C(O)[C@H](Cc1ccccc1)N(CC#Cc1cc2ccccc2o1)C(=O)c1ccc(Cl)cc1Cl [compound #113, (2s)-2-[(3-Benzofuran-2-yl-prop-2-ynyl)-(2,4-dichloro-benzoyl)-amino]-3-phenyl-propionic acid] | < 5 µM |
| O=C(O)[C@H](Cc1ccccc1)N(C(=O)c1ccc(Cl)cc1Cl)c1ccc(-c2cc3ccccc3o2)cc1 [compound #114, (2s)-2-[(4-Benzofuran-2-yl-phenyl)-(2,4-dichloro-benzoyl)-amino]-3-phenyl-propionic acid] | < 5 µM |
| CC(C)=CCN(C(=O)c1ccc(Cl)cc1Cl)[C@@H](Cc1ccccc1)C(=O)O [compound #115, (2s)-2-[(2,4-Dichloro-benzoyl)-(3-methyl-but-2-enyl)-amino]-3-phenyl-propionic acid] | 5 to 20 µM |
| C=C(Br)CN(C(=O)c1ccc(Cl)cc1Cl)C(Cc1ccccc1)C(=O)O (stereo not drawn) [compound #116, 2-[(2-Bromo-allyl)-(2,4-dichloro-benzoyl)-amino]-3-phenyl-propionic acid] | 5 to 20 µM |
| O=C(O)[C@H](Cc1ccccc1)N(Cc1ccc(-c2ccccc2C(F)(F)F)o1)C(=O)c1ccc(Cl)cc1Cl [compound #120, (2s)-2-{(2,4-Dichloro-benzoyl)-[5-(2-trifluoromethyl-phenyl)-furan-2-ylmethyl]-amino}-3-phenyl-propionic acid] | < 5 µM |
| CCOC(=O)c1ccccc1-c1ccc(CN(C(=O)c2ccc(Cl)cc2Cl)[C@@H](Cc2ccccc2)C(=O)O)s1 [compound #121, (2s)-2-(5-{[(1s-1-Carboxy-2-phenyl-ethyl)-(2,4-dichloro-benzoyl)-amino]-methyl}-thiophen-2-yl)-benzoic acid ethyl ester] | < 5 µM |
| CCOC(=O)c1cccc(-c2ccc(CN(C(=O)c3ccc(Cl)cc3Cl)[C@@H](Cc3ccccc3)C(=O)O)s2)c1 [compound #122, 3-(5-{[(1s-1-Carboxy-2-phenyl-ethyl)-(2,4-dichloro-benzoyl)-amino]-methyl}-thiophen-2-yl)-benzoic acid ethyl ester] | < 5 µM |
| O=C(O)[C@H](Cc1ccccc1)N(Cc1ccc(-c2cccc(Cl)c2)o1)C(=O)c1ccc(Cl)cc1Cl [compound #123, (2s)-2-[[5-(3-Chloro-phenyl)-furan-2-ylmethyl]-(2,4-dichloro-benzoyl)-amino]-3-phenyl-propionic acid] | < 5 µM |
| O=C(O)[C@H](Cc1ccccc1)N(Cc1sc(Br)cc1Br)C(=O)c1ccc(Cl)cc1I [compound #124, (2s)-2-[(4-Chloro-2-iodo-benzoyl)-(3,5-dibromo-thiophen-2-ylmethyl)-amino]-3-phenyl-propionic acid] | < 5 µM |
| O=C(O)c1cccc(-c2ccc(CN(C(=O)c3ccc(Cl)cc3Cl)[C@@H](Cc3ccccc3)C(=O)O)s2)c1 [compound #125, (2s)-3-(5-{[(1-Carboxy-2-phenyl-ethyl)-(2,4-dichloro-benzoyl)-amino]-methyl}-thiophen-2-yl)-benzoic acid] | < 5 µM |
| O=C(O)[C@H](Cc1ccccc1)N(Cc1ccc(-c2ccc(Cl)s2)o1)C(=O)c1ccc(Cl)cc1Cl [compound #126, (2s)-2-[[5-(5-Chloro-thiophen-2-yl)-furan-2-ylmethyl]-(2,4-dichloro-benzoyl)-amino]-3-phenyl-propionic acid] | < 5 µM |
| O=C(O)[C@H](Cc1ccccc1)N(Cc1ccc(-c2cccs2)s1)C(=O)c1ccc(Cl)cc1Cl [compound #127, (2s)-2-[[2,2′]Bithiophenyl-5-ylmethyl-(2,4-dichloro-benzoyl)-amino]-3-phenyl-propionic acid] | < 5 µM |
